# Data as given in ChEMBL document CHEMBL4433242, “Rapalogs Potential as Practical Alternatives to Rapamycin” (ACS Med Chem Lett, 2019).
# Target: Serine/threonine-protein kinase mTOR (Mus musculus, UniProt Q9JLN9)
# Assay: Inhibition of mTOR in mouse TSC1-/- MEF cells assessed as inhibition of S6 Ser240/244 phosphorylation incubated for 2 hrs by fluorescence based assay
# Format: cell-based
row,SMILES,IC50 [nM]
1,CO[C@@H]1C[C@H](C[C@@H](C)[C@@H]2CC[C@H](C)/C=C(\C)[C@@H](O)[C@@H](OC)C(=O)[C@H](C)C[C@H](C)/C=C/C=C/C=C(\C)[C@H](N3CCCS3(=O)=O)C[C@@H]3CC[C@@H](C)[C@@](O)(O3)C(=O)C(=O)N3CCCC[C@H]3C(=O)O2)CC[C@H]1O,0.274
2,CO[C@@H]1C[C@H](C[C@@H](C)[C@@H]2CC[C@H](C)/C=C(\C)[C@@H](O)[C@@H](OC)C(=O)[C@H](C)C[C@H](C)/C=C/C=C/C=C(\C)C(N3CCS3(=O)=O)C[C@@H]3CC[C@@H](C)[C@@](O)(O3)C(=O)C(=O)N3CCCC[C@H]3C(=O)O2)CC[C@@H]1n1cnnn1 (stereo not given in full),0.374
3,CO[C@@H]1C[C@H](C[C@@H](C)[C@@H]2CC[C@H](C)/C=C(\C)[C@@H](O)[C@@H](OC)C(=O)[C@H](C)C[C@H](C)/C=C/C=C/C=C(\C)C(N3CCN(CCO)C3=O)C[C@@H]3CC[C@@H](C)[C@@](O)(O3)C(=O)C(=O)N3CCCC[C@H]3C(=O)O2)CC[C@H]1O (stereo not given in full),153
4,CO[C@@H]1C[C@H](C[C@@H](C)[C@@H]2CC[C@H](C)/C=C(\C)[C@@H](O)[C@@H](OC)C(=O)[C@H](C)C[C@H](C)/C=C/C=C/C=C(\C)C(N3CCS3(=O)=O)C[C@@H]3CC[C@@H](C)[C@@](O)(O3)C(=O)C(=O)N3CCCC[C@H]3C(=O)O2)CC[C@H]1O (stereo not given in full),0.17
5,CO[C@@H]1C[C@H](C[C@@H](C)[C@@H]2CC[C@H](C)/C=C(\C)[C@@H](O)[C@@H](OC)C(=O)[C@H](C)C[C@H](C)/C=C/C=C/C=C(\C)C(N3CCCS3(=O)=O)C[C@@H]3CC[C@@H](C)[C@@](O)(O3)C(=O)C(=O)N3CCCC[C@H]3C(=O)O2)CC[C@H]1OP(C)(C)=O (stereo not given in full),3.2
